Results reported in patent publication US11970493B2, “Autotaxin inhibitor compounds” (ILDONG PHARMACEUTICAL CO., LTD., priority 2020, dated 2024).
Where a name gives a salt, the structure may show the parent alone.

These compounds were tested against hATX/ENPP2 (Homo sapiens, UniProt Q13822) (assay: hATX/ENPP2 biochemical assay using 16:0-LPC as substrate (Amplex Red/choline oxidase/HRP fluorescence)). Conditions: hENPP2 2.5 nM, LPC (16:0) substrate.
Description: The enzyme is diluted in 50 mM Tris-HCl pH 8.0, 140 mM NaCl, 5 mM CaCl2, 0.01% Triton X-100 in a total volume of 5 μL. The aqueous solution of enzyme is added to the wells and incubated with different concentrations of the compounds at room temperature for 15 min. The reaction is started by the addition of 5 μL of 80 μM LPC (16:0) and 10 μL of the detection mixture containing 200 μM Amplex Red, 10 U/mL choline oxidase and 4 U/mL HRP. Fluorescence at 590 nm was measured kinetically with excitation at 530 nm. The slope of the curve (from 60 to 70 min of the reaction time) was used to calculate the compounds' IC50 values.

Compound | IC50 [nM]
CCc1nc2ccc(-c3cnc(C4CCN(CC(=O)N5CCC5)CC4)nc3)cn2c1N(C)c1nc(-c2ccc(F)cc2)c(C#N)s1 [Compound 103, 2-((6-(2-(1-(2-(azetidin-1-yl)-2-oxoethyl)piperidin-4-yl)pyrimidin-5-yl)-2-ethylimidazo[1,2-a]pyridin-3-yl)(methyl)amino)-4-(4-fluorophenyl)thiazole-5-carbonitrile] | 20 to 200
CCc1nc2ccc(-c3cnc(N4CCC(NC(=O)[C@H]5C[C@H](O)CN5)CC4)nc3)cn2c1N(C)c1nc(-c2ccc(F)cc2)c(C#N)s1 [Compound 74, (2R,4S)—N-(1-(5-(3-((5-cyano-4-(4-fluorophenyl)thiazol-2-yl)(methyl)amino)-2-ethylimidazo[1,2-a]pyridin-6-yl)pyrimidin-2-yl)piperidin-4-yl)-4-hydroxypyrrolidine-2-carboxamide] | ≤ 20
CCc1nc2ccc(-c3cnc(C4CCN(C(=O)C5CC5)CC4)nc3)cn2c1N(C)c1nc(-c2ccc(F)cc2)c(C#N)s1 [Compound 99, 2-((6-(2-(1-(cyclopropanecarbonyl)piperidin-4-yl)pyrimidin-5-yl)-2-ethylimidazo[1,2-a]pyridin-3-yl)(methyl)amino)-4-(4-fluorophenyl)thiazole-5-carbonitrile] | 20 to 200
CCc1nc2ccc(-c3ccc(N4CCC(NC5(CO)CC5)CC4)nc3)cn2c1N(C)c1nc(-c2ccc(F)cc2)c(C#N)s1 [Compound 88, 2-((2-ethyl-6-(6-(4-((1-(hydroxymethyl)cyclopropyl)amino)piperidin-1-yl)pyridin-3-yl)imidazo[1,2-a]pyridin-3-yl)(methyl)amino)-4-(4-fluorophenyl)thiazole-5-carbonitrile] | ≤ 20
CCc1nc2ccc(-c3cnc(N4CC(NC(=O)[C@@H]5C[C@H](O)CN5)C4)nc3)cn2c1N(C)c1nc(-c2ccc(F)cc2)c(C#N)s1 [Compound 24, (2S,4S)—N-(1-(5-(3-((5-cyano-4-(4-fluorophenyl)thiazol-2-yl)(methyl)amino)-2-ethylimidazo[1,2-a]pyridin-6-yl)pyrimidin-2-yl)azetidin-3-yl)-4-hydroxy pyrrolidine-2-carboxamide] | 20 to 200
CCc1nc2ccc(-c3ccc(N4CCC(NC(=O)C5(O)CC5)CC4)nc3)cn2c1N(C)c1nc(-c2ccc(F)cc2)c(C#N)s1 [Compound 98, N-(1-(5-(3-((5-cyano-4-(4-fluorophenyl)thiazol-2-yl)(methyl)amino)-2-ethylimidazo[1,2-a]pyridin-6-yl)pyridin-2-yl)piperidin-4-yl)-1-hydroxycyclopropane-1-carboxamide] | ≤ 20
CCc1nc2ccc(-c3cnc(CC(=O)N4CC[C@@H](O)C4)nc3)cn2c1N(C)c1nc(-c2ccc(F)cc2)c(C#N)s1 [Compound 56, (R)-2-((2-ethyl-6-(2-(2-(3-hydroxypyrrolidin-1-yl)-2-oxoethyl)pyrimidin-5-yl)imidazo[1,2-a]pyridin-3-yl)(methyl)amino)-4-(4-fluorophenyl)thiazole-5-carbonitrile] | 20 to 200
CCc1nc2ccc(-c3cnc(CC(=O)NC4(C#N)CC4)nc3)cn2c1N(C)c1nc(-c2ccc(F)cc2)c(C#N)s1 [Compound 64, 2-(5-(3-((5-cyano-4-(4-fluorophenyl)thiazol-2-yl)(methyl)amino)-2-ethylimidazo[1,2-a]pyridin-6-yl)pyrimidin-2-yl)-N-(1-cyanocyclopropyl)acetamide] | 20 to 200

The next lines start with the values.

IC50 [nM] | Compound
20 to 200 | CCc1nc2ccc(-c3cnc(NC4CN(C(=O)N5CC(O)C5)C4)nc3)cn2c1N(C)c1nc(-c2ccc(F)cc2)c(C#N)s1 [Compound 37, 2-((2-ethyl-6-(2-((1-(3-hydroxyazetidine-1-carbonyl)azetidin-3-yl)amino)pyrimidin-5-yl)imidazo[1,2-a]pyridin-3-yl)(methyl)amino)-4-(4-fluorophenyl)thiazole-5-carbonitrile]
20 to 200 | CCc1nc2ccc(-c3cnc(N4CC(NC5CCC5)C4)nc3)cn2c1N(C)c1nc(-c2ccc(F)cc2)c(C#N)s1 [Compound 106, 2-((6-(2-(3-(cyclobutylamino)azetidin-1-yl)pyrimidin-5-yl)-2-ethylimidazo[1,2-a]pyridin-3-yl)(methyl)amino)-4-(4-fluorophenyl)thiazole-5-carbonitrile]
20 to 200 | CCc1nc2ccc(-c3cnc(N4CCN(C(=O)NC5CCNCC5)CC4)nc3)cn2c1N(C)c1nc(-c2ccc(F)cc2)c(C#N)s1 [Compound 67, 4-(5-(3-((5-cyano-4-(4-fluorophenyl)thiazol-2-yl)(methyl)amino)-2-ethylimidazo[1,2-a]pyridin-6-yl)pyrimidin-2-yl)-N-(piperidin-4-yl)piperazine-1-carboxamide]
> 200 | CCc1nc2ccc(-c3cnc(C(=O)N4CC(NC5CCC5)C4)nc3)cn2c1N(C)c1nc(-c2ccc(F)cc2)c(C#N)s1 [Compound 13, 2-((6-(2-(3-(cyclobutylamino)azetidine-1-carbonyl)pyrimidin-5-yl)-2-ethylimidazo[1,2-a]pyridin-3-yl)(methyl)amino)-4-(4-fluorophenyl)thiazole-5-carbonitrile]
20 to 200 | CCc1nc2ccc(-c3cnc(N4CC(NC5CN(C)C5)C4)nc3)cn2c1N(C)c1nc(-c2ccc(F)cc2)c(C#N)s1 [80 (hydrochloride salt), 2-((2-ethyl-6-(2-(3-((I-methylazetidin-3-yl)amino)azetidin-1-yl)pyrimidin-5-yl)imidazo[1,2-a]pyridin-3-yl)(methyl)amino)-4-(4-fluorophenyl)thiazole-5-carbonitrile hydrochloride]
20 to 200 | CCc1nc2ccc(-c3cnc(N4CC(C(=O)NC5CNC5)C4)nc3)cn2c1N(C)c1nc(-c2ccc(F)cc2)c(C#N)s1 [70 (hydrochloride salt), N-(azetidin-3-yl)-1-(5-(3-((5-cyano-4-(4-fluorophenyl)thiazol-2-yl)(methyl)amino)-2-ethylimidazo[1,2-a]pyridin-6-yl)pyrimidin-2-vl) azetidine-3-carboxamide hydrochloride]
> 200 | CCc1nc2ccc(-c3cnc(NC4CCNCC4)nc3)cn2c1N(C)c1nc(-c2ccc(F)cc2)c(C#N)s1 [Compound 22, 2-((2-ethyl-6-(2-(piperidin-4-ylamino)pyrimidin-5-yl)imidazo[1,2-a]pyridin-3-yl)(methyl)amino)-4-(4-fluorophenyl)thiazole-5-carbonitrile]
20 to 200 | CCc1nc2ccc(-c3cnc(CC(=O)N4CCNCC4)nc3)cn2c1N(C)c1nc(-c2ccc(F)cc2)c(C#N)s1 [Compound 58, 2-((2-ethyl-6-(2-(2-oxo-2-(piperazin-1-yl)ethyl)pyrimidin-5-yl)imidazo[1,2-a]pyridin-3-yl)(methyl)amino)-4-(4-fluorophenyl)thiazole-5-carbonitrile]
> 200 | CCc1nc2ccc(-c3cnc(NC4CNC4)nc3)cn2c1N(C)c1nc(-c2ccc(F)cc2)c(C#N)s1 [Compound 34, 2-((6-(2-(azetidin-3-ylamino)pyrimidin-5-yl)-2-ethylimidazo[1,2-a]pyridin-3-yl)(methyl)amino)-4-(4-fluorophenyl)thiazole-5-carbonitrile]
20 to 200 | CCc1nc2ccc(-c3cnc(N4CC(NC5CNC5)C4)nc3)cn2c1N(C)c1nc(-c2ccc(F)cc2)c(C#N)s1 [Compound 27, 2-((6-(2-(3-(azetidin-3-ylamino)azetidin-1-yl)pyrimidin-5-yl)-2-ethylimidazo[1,2-a]pyridin-3-yl)(methyl)amino)-4-(4-fluorophenyl)thiazole-5-carbonitrile]
